Values quoted from earlier work as cited in US7041634B2, “Method of inhibiting immune system destruction of transplanted viable cells” (Emory University, priority 1995, dated 2006).

Test system: encapsulated hamster islet xenografts in NOD mice
Conditions: NOD recipients

## N=C(N)NCCCCCCC(=O)NC(O)C(=O)NCCCCNCCCN (stereo not shown) [deoxyspergualin]
  prolongation of encapsulated islet xenografts: significant prolongation
